Measured values taken from US9546188B2, “Complexes of germanium with amino acids and carboxylic acids and method for preparing same” (OBSCHESTVO S OGRANICHENNOI OTVETSTVENNOSTYU “WDS FARMA”, priority 2012, dated 2017).

Experiments:
[1] = system: and malignant tumors of the uterus; settings: six patients, 100 mg orally twice daily; cited from earlier work
[2] = system: oval cancer and malignant tumors of the uterus; settings: cited from earlier work
[3] = room temperature

| SMILES | exudate in the abdominal cavity or internal pelvic cavity [1] | infiltration in post-operational examination ([2]; examination one month later) | health of patients ([2]; six patients, 100 mg orally as 10% solution twice daily, tumors removed surgically) | toxic side effects ([2]; six patients, 100 mg orally twice daily) | water solubility [3] |
| --- | --- | --- | --- | --- | --- |
| N[C@@H](CC(=O)O)C(=O)O.[Ge] [germanium compound with aspartic acid] | five patients did not show exudate | None patients showed infiltration | noticeable improvement in health | no toxic side effects | – |
| O=C(O)CCCCCCCC(=O)O [azelaic acid] | – | – | – | – | 0.2% |
